# In US9067928B2 (Genentech, Inc., priority 2008, dated 2015):
# Target: T1, Bcl-xL (Homo sapiens, UniProt Q07817)
# T1 construct: made in house
# Test: Alpha Screen Bcl-xL binding assay, competition with Bim26-mer
# Conditions: values listed in the order of Table 1; read-out: Alphascreen results (IC50)
# Description: The measurement of competition of compounds of the invention with Bim26-mer for a Bcl-2 family protein binding site using an Alpha Screen Bcl-xL Binding Assay:
# The BH3 proteins ALPHASCREEN™ assay was used to identify active small molecules Bcl-2 family protein screen. e.g., Bcl-xL, hmMcl-1 screen. To determine an accurate estimation of the IC50, the compounds were routinely tested at starting concentrations, 100 μM and/or 1 μM and serially titrated 3 fold over 11 dilutions.
# The beads come in close proximity when the protein and the peptides interact. Donor beads contain a photosensitiser that converts oxygen to an excited form of O2 at an excitation of 680 nm. Energy is transformed from the singlet oxygen and reacts with chemiluminescers on the acceptor bead, resulting in light emission at 520-620 nm. […] With this information, the IC50 of each compound was calculated
# GST-Bcl-xL, GST-hmMcl-1 and biotinylated GST proteins were prepared in-house and were stored as stock solutions at −80° C. The biotinylated-Bak, and biotinylated-Bim peptides were purchased from Auspep and were stored as 500 μM stock solutions in 100% DMSO at −80° C. The ALPHASCREEN™ GST (Glutathione-S-Transferase) Detection Kit was obtained from Perkin Elmer Lifesciences (Cat #6760603R). The Proxiplates, white 384 well flat-Bottom plates were purchased from Interpath Services, Melbourne (Cat #784075). The seals to cover the plates were purchased from Proscience. Melbourne (Cat#784075). DMSO was purchased from AnalaR. The 384 deep well plates and the Polypropylene 50 μL, V bottom polypropylene compound plates were purchased from Matrical.
# Compounds of the invention were prepared as 10 mM stocks with 100% DMSO on the day prior to performing the assay. […] To achieve a final compound concentration of 1 μM, in a separate matrical plate, 28 μL of 100% DMSO and 2 μL of 10 mM compound was added to a well, mixed well. 2 μL of this solution was taken and added to 38 μL of 100% DMSO. 20 μL of this solution was added to the test matrical plate. Several control compounds were included in the test plates. For the control wells 15 μL 100% DMSO only was added to the appropriate wells of each plate. The compound plates were then serially diluted 2 fold using the MiniTrak. Once titrations were complete, the compound plate was immediately covered with a foil seal to prevent evaporation.
# The assay and bead buffers were prepared fresh. Each titrated compound plate was assayed in duplicate. The following volumes were sufficient to run 12 Proxiplates (4 assay plates run in duplicate in each of Bclxl, hmMcl and counter assays)
# Protein and Peptide Preparation; and Assay Performance • 1. The assay and bead buffers were used to prepare the acceptor and donor solutions. ALPHASCREEN™ beads are light sensitive and therefore prepared in a darkened room. 2.5 μL of beads were added per 1 mL of buffer. • 2. The volume of protein or peptide to add was calculated using the following formula:
# [formula] • C1=Final Concentration of protein/peptide • C2=Stock Concentration of protein/peptide • V1=Total Volume of Acceptor/Donor Solution • V2=Volume of stock protein/Peptide to add to Acceptor/Donor solution • 3. The assay components were prepared as separate Acceptor and Donor Solutions. The Acceptor Solution contained Acceptor heads and target protein, while the Donor Solution contained Donor beads and biotinylated peptide.
# • 4. After the solutions were prepared, they were left to incubate for 30 minutes at room temperature to allow the beads to bind to the protein and the peptide. • 5. 50 μL of Bcl-xL solution, 50 μL of hmMcl-1 solution and 50 µL of biotinylated-GST were added into separate deep wells on an assay plate. A control […]. Assay/Bead buffer was added separate well plates (no protein). • 6.
# T1 sequence (Q07817 whole entry, species assumed): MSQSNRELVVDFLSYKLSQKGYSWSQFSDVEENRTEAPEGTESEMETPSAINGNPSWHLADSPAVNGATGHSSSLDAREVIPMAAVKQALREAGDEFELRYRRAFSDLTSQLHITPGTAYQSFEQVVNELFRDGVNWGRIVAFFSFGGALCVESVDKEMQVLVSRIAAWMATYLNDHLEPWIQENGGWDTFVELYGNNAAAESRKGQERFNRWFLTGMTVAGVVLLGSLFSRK
row,SMILES,IC50 [nM]
1,"COc1ccc(-c2sc(-c3ccc4c(c3)N(C(=O)Nc3nc5ccc(F)cc5s3)CCC4)nc2C(=O)O)cc1 [Example 72, 2-(1-(6-fluorobenzo[d]thiazol-2-ylcarbamoyl)-1,2,3,4-tetrahydroquinolin-7-yl)-5-(4-methoxyphenyl)thiazole-4-carboxylic acid]",10100
2,O=C(O)c1nc(-c2ccc3c(c2)N(C(=O)Nc2nc4ccccc4s2)CCC3)ccc1OCCCOc1cccc2cccnc12 [Example 46],10
3,"Cc1ccc(-c2sc(-c3ccc4c(c3)N(C(=O)Nc3nc5ccccc5s3)CCO4)nc2C(=O)O)cc1 [Example 64, 2-(4-(benzo[d]thiazol-2-ylcarbamoyl)-3,4-dihydro-2H-benzo[b][1,4]oxazin-6-yl)-5-p-tolylthiazole-4-carboxylic acid]",310
4,CC(C)COc1ccc(-c2ccc3c(c2)N(C(=O)Nc2nc4ccccc4s2)CCC3)nc1C(=O)O [Example 4],1440
5,"CS(=O)(=O)NC(=O)c1nc(-c2ccc3c(c2)N(C(=O)Nc2nc4ccccc4s2)CCO3)ccc1OCCCc1ccccc1 [Example 91, N-(benzo[d]thiazol-2-yl)-6-(6-(methylsulfonylcarbamoyl)-5-(3-phenylpropoxy)pyridin-2-yl)-2H-benzo[b][1,4]oxazin-4(3H)-carboxamide]",140
6,"O=C(O)c1nc(-c2ccc3c(c2)N(C(=O)Nc2nc4ccccc4s2)CCC3)sc1Oc1ccc(F)cc1 [Example 65, 2-(1-(benzo[d]thiazol-2-ylcarbamoyl)-1,2,3,4-tetrahydroquinolin-7-yl)-5-(4-fluorophenoxy)thiazole-4-carboxylic acid]",230
7,CN1CCN(C(=O)Nc2nc3ccccc3s2)c2cc(-c3cccc(C(=O)O)n3)ccc21 [Example 3],5390
8,"O=C(O)c1nc(-c2ccc3c(c2)N(C(=O)Nc2nc4ccccc4s2)CCC3)sc1CCCOc1ccccc1 [Example 78, 2-(1-(benzo[d]thiazol-2-ylcarbamoyl)-1,2,3,4-tetrahydroquinolin-7-yl)-5-(3-phenoxypropyl)thiazole-4-carboxylic acid]",0.6
9,"O=C(O)c1nc(-c2ccc3c(c2)N(C(=O)Nc2nc4ccccc4s2)CCO3)sc1CCCCc1ccccc1 [Example 77, 2-(4-(benzo[d]thiazol-2-ylcarbamoyl)-3,4-dihydro-2H-benzo[b][1,4]oxazin-6-yl)-5-(4-phenylbutyl)thiazole-4-carboxylic acid]",120
10,"CC(C)(C)OC(=O)Nc1ccc(OCCCc2sc(-c3ccc4c(c3)N(C(=O)Nc3nc5ccccc5s3)CCC4)nc2C(=O)O)cc1 [Example 85, 2-(1-(benzo[d]thiazol-2-ylcarbamoyl)-1,2,3,4-tetrahydroquinolin-7-yl)-5-(3-(4-(tert-butoxycarbonylamino)phenoxy)propyl)thiazole-4-carboxylic acid]",0.5
11,"COc1ccc(-c2sc(-c3ccc4c(c3)N(C(=O)Nc3nc5ccccc5s3)CCO4)nc2C(=O)O)cc1 [Example 66, 2-(4-(benzo[d]thiazol-2-ylcarbamoyl)-3,4-dihydro-2H-benzo[b][1,4]oxazin-6-yl)-5-(4-methoxyphenyl)thiazole-4-carboxylic acid]",110
12,"COc1cccc(-c2sc(-c3ccc4c(c3)N(C(=O)Nc3nc5ccccc5s3)CCO4)nc2C(=O)O)c1 [Example 67, 2-(4-(benzo[d]thiazol-2-ylcarbamoyl)-3,4-dihydro-2H-benzo[b][1,4]oxazin-6-yl)-5-(3-methoxyphenyl)thiazole-4-carboxylic acid]",200
13,"Nc1cccc(OCCCc2sc(-c3ccc4c(c3)N(C(=O)Nc3nc5ccccc5s3)CCC4)nc2C(=O)O)c1 [Example 82, 5-(3-(3-aminophenoxy)propyl)-2-(1-(benzo[d]thiazol-2-ylcarbamoyl)-1,2,3,4-tetrahydroquinolin-7-yl)thiazole-4-carboxylic acid]",0.7
14,"O=C(O)c1nc(-c2ccc3c(c2)N(C(=O)Nc2nc4ccccc4s2)CCO3)sc1CCCSc1ccncc1 [Example 73, 2-(4-(benzo[d]thiazol-2-ylcarbamoyl)-3,4-dihydro-2H-benzo[b][1,4]oxazin-6-yl)-5-(3-(pyridin-4-ylthio)propyl)thiazole-4-carboxylic acid]",8
15,"O=C(O)c1nc(-c2ccc3c(c2)N(C(=O)Nc2nc4ccccc4s2)CCC3)sc1Oc1ccc(-n2ncc3cncnc32)cc1 [Example 93, 5-(4-(1H-pyrazolo[3,4-d]pyrimidin-1-yl)phenoxy)-2-(1-(benzo[d]thiazol-2-ylcarbamoyl)-1,2,3,4-tetrahydroquinolin-7-yl)thiazole 4-carboxylic acid]",40
16,"CN(CCOc1ccccc1)c1sc(-c2ccc3c(c2)N(C(=O)Nc2nc4ccccc4s2)CCO3)nc1C(=O)O [Example 76, 2-(4-(benzo[d]thiazol-2-ylcarbamoyl)-3,4-dihydro-2H-benzo[b][1,4]oxazin-6-yl)-5-(methyl(2-phenoxyethyl)amino)thiazole-4-carboxylic acid]",390
17,O=C(O)c1nc(-c2ccc3c(c2)N(C(=O)Nc2nc4ccccc4s2)CCC3)ccc1OCCOc1ccccc1 [Example 19],2
18,"O=C(O)c1nc(-c2ccc3c(c2)N(C(=O)Nc2nc4ccccc4s2)CCO3)ccc1OCCCc1ccccc1 [Example 88, 6-(4-(benzo[d]thiazol-2-ylcarbamoyl)-3,4-dihydro-2H-benzo[b][1,4]oxazin-6-yl)-3-(3-phenylpropoxy)picolinic acid]",65
19,"NCc1ccc(OCCCc2sc(-c3ccc4c(c3)N(C(=O)Nc3nc5ccccc5s3)CCO4)nc2C(=O)O)cc1 [Example 83, 5-(3-(4-(aminomethyl)phenoxy)propyl)-2-(4-(benzo[d]thiazol-2-ylcarbamoyl)-3,4-dihydro-2H-benzo[b][1,4]oxazin-6-yl)thiazole-4-carboxylic acid]",5
20,Nc1cccc(OCc2cccc(-c3ccc(-c4ccc5c(c4)N(C(=O)Nc4nc6ccccc6s4)CCC5)nc3C(=O)O)c2)c1 [Example 41],5
21,"O=C(O)c1nc(-c2ccc3c(c2)N(C(=O)Nc2cc4ccccn4n2)CCO3)ccc1OCCCc1ccccc1 [Example 89, 3-(3-phenylpropoxy)-6-(4-(pyrazolo[1,5-a]pyridin-2-ylcarbamoyl)-3,4-dihydro-2H-benzo[b][1,4]oxazin-6-yl)picolinic acid]",235
22,"COc1ccc(Oc2sc(-c3ccc4c(c3)N(C(=O)Nc3nc5ccccc5s3)CCO4)nc2C(=O)O)cc1 [Example 69, 2-(4-(benzo[d]thiazol-2-ylcarbamoyl)-3,4-dihydro-2H-benzo[b][1,4]oxazin-6-yl)-5-(4-methoxyphenoxy)thiazole-4-carboxylic acid]",680
23,"NC(=O)c1nc(-c2ccc3c(c2)N(C(=O)Nc2nc4ccccc4s2)CCC3)sc1Oc1ccc(F)cc1 [Example 70, 2-(1-(benzo[d]thiazol-2-ylcarbamoyl)-1,2,3,4-tetrahydroquinolin-7-yl)-5-{4-fluorophenoxy)thiazole-4-carboxamide]",10000
